The results in this text go back to US12433961B2, “Near-infrared fluorescent probe specifically targeting tumors as well as synthesis method and use thereof” (NANJING NUOYUAN MEDICAL INSTRUMENT CO. LTD, priority 2022, dated 2025).

This data set concerns colorectal cancer HT29 subcutaneous tumor. In words: In-vivo near-infrared fluorescence imaging in subcutaneous HT29 tumor-bearing mouse model. The settings on record: HT29 tumor-bearing mice, 30 nmol tail vein, imaging 0 h-48 h. The protocol: In a subcutaneous tumor HT29 tumor-bearing mouse model, YQ-H (30 nmol, dissolved with 100 μL of normal saline for injection) series probes respectively underwent tail vein administration, fluorescence imaging was respectively photographed at different time points (0 h, 6 h, 12 h, 24 h and 48 h in sequence) by small animal living imaging CCD.

For the compound `CC1(C)C(/C=C/C2=C(SCCC(=O)NCCCCCC(=O)N(CCS(C)(=O)=O)Cc3ccc(-c4ccc5ncnc(Nc6ccc(OCc7cccc(F)c7)c(Cl)c6)c5c4)o3)C(=C/C=C3/N(CCCS(=O)(=O)O)c4ccc(S(=O)(=O)O)cc4C3(C)C)/CCC2)=[N+](CCCS(=O)(=O)O)c2ccc(S(=O)(=O)[O-])cc21` [YQ-H-03], the “fluorescence signals in liver” value is reported as “strong fluorescence signals in liver” and the tumor targeting effect result is “a certain tumor targeting effect”.
